Assay results: ChEMBL document CHEMBL5390201, “The Natural Alkaloid (-)-N-Hydroxyapiosporamide Suppresses Colorectal Tumor Progression as an NF-κB Pathway Inhibitor by Targeting the TAK1-TRAF6 Complex” (J Nat Prod, 2023)
The source made the active and inactive calls. No cut-off for these calls is given here.

Columns and labels:
[1] = Toxicity in athymic nude BALB/c mouse xenografted with human HCT-116 cells assessed as reduction in body weight at 5 to 15 mg/kg, ip administered every other day and measured every other day for 16 days; format: organism-based; settings: in vivo, 384 h, dose 5-15 mg/kg, time 16 day
HCT-116 [2] = assay: Induction of autophagic flux in human HCT-116 cells assessed as increase in LC3 protein expression preincubated with chloroquine for 1 hr followed by compound addition and measured after 24 hrs by Western blot analysis; format: functional, cell-based
HT-29 [3] = assay: Induction of apoptosis in human HT-29 cells assessed as necrotic cells at 0.25 uM incubated for 24 hrs by Annexin V-FITC/PI staining based flow cytometric analysis (reference value: 0.14 %); format: functional
HCT-116 [4] = assay: Induction of apoptosis in human HCT-116 cells assessed as viable cells at 5 uM incubated for 24 hrs by Annexin V-FITC/PI staining based flow cytometric analysis (reference value: 74.3 %); format: functional; settings: read-out: Activity
HT-29 [5] = assay: Inhibition of colony formation in human HT-29 cells at 0.25 to 10 uM incubated for 24 hrs and measured after 14 days by crystal violet staining based assay; format: functional, cell-based; settings: dose 0.25-10 µM, time 14.0 day
HT-29 [6] = assay: Induction of cell cycle arrest in human HT-29 cells assessed as accumulation of cells at G0/G1 phase at 10 uM by RNase/PI staining based flow cytometry analysis (reference value: 50.73 %); format: functional
HT-29 [7] = assay: Induction of cell cycle arrest in human HT-29 cells assessed as accumulation of cells at G0/G1 phase at 1 uM by RNase/PI staining based flow cytometry analysis (reference value: 50.73 %); format: functional
HCT-116 [8] = assay: Induction of cell cycle arrest in human HCT-116 cells assessed as decrease in CDK2 protein expression upto 10 uM incubated for 24 hrs by Western blot analysis; format: functional, cell-based
HT-29 [9] = assay: Induction of cell cycle arrest in human HT-29 cells assessed as decrease in Cdc2 protein expression upto 10 uM incubated for 24 hrs by Western blot analysis; format: functional, cell-based
HT-29 [10] = assay: Induction of cell cycle arrest in human HT-29 cells assessed as decrease in Cdc25c protein expression upto 10 uM incubated for 24 hrs by Western blot analysis; format: functional, cell-based
HCT-116 [11] = assay: Induction of apoptosis in human HCT-116 cells assessed as viable cells at 10 uM incubated for 24 hrs by Annexin V-FITC/PI staining based flow cytometric analysis (reference value: 88.8%); format: functional; settings: read-out: Activity
HCT-116 [12] = assay: Induction of apoptosis in human HCT-116 cells assessed as viable cells at 0.5 uM incubated for 24 hrs by Annexin V-FITC/PI staining based flow cytometric analysis (reference value: 88.8%); format: functional; settings: read-out: Activity
HCT-116 [13] = assay: Induction of apoptosis in human HCT-116 cells assessed as necrotic cells at 1 uM incubated for 24 hrs by Annexin V-FITC/PI staining based flow cytometric analysis (reference value: 1.1 %); format: functional
HT-29 [14] = assay: Induction of apoptosis in human HT-29 cells assessed as viable cells at 10 uM incubated for 24 hrs by Annexin V-FITC/PI staining based flow cytometric analysis (reference value: 93 %); format: functional; settings: read-out: Activity
HT-29 [15] = assay: Induction of apoptosis in human HT-29 cells assessed as early apoptotic cells at 5 uM incubated for 24 hrs by Annexin V-FITC/PI staining based flow cytometric analysis (reference value: 5.29 %); format: functional
HT-29 [16] = assay: Induction of apoptosis in human HT-29 cells assessed as late apoptotic cells at 0.5 uM incubated for 24 hrs by Annexin V-FITC/PI staining based flow cytometric analysis (reference value: 1.56 %); format: functional
HT-29 [17] = assay: Induction of apoptosis in human HT-29 cells assessed as necrotic cells at 10 uM incubated for 24 hrs by Annexin V-FITC/PI staining based flow cytometric analysis (reference value: 0.14 %); format: functional
HT-29 [18] = assay: Induction of apoptosis in human HT-29 cells assessed as necrotic cells at 5 uM incubated for 24 hrs by Annexin V-FITC/PI staining based flow cytometric analysis (reference value: 0.14 %); format: functional
HT-29 [19] = assay: Induction of apoptosis in human HT-29 cells assessed as inhibition of caspase 8 protein expression measured for 24 hrs by Western blot analysis; format: functional, cell-based; settings: dose 0-10 µM
HCT-116 [20] = assay: Induction of apoptosis in human HCT-116 cells assessed as necrotic cells at 5 uM preincubated with Z-VAD-FMK for 1 hr followed by compound addition and measured after 24 hrs by Annexin V-FITC/PI staining based flow cytometric analysis (reference value: 0.34 %); format: functional
HCT-116 [21] = assay: Induction of autophagy in human HCT-116 cells assessed as increase in LC3 protein expression at 1 to 10 uM incubated for 24 hrs by Western blot analysis; format: functional, cell-based; settings: dose 1-10 µM
HT-29 [22] = assay: Induction of autophagic flux in human HT-29 cells assessed as increase in LC3I to LC3II conversion preincubated with chloroquine for 1 hr followed by compound addition and measured after 24 hrs by Western blot analysis; format: functional, cell-based
[23] = biological target: T1, Nuclear factor NF-kappa-B complex (Homo sapiens) (UniProt Q00653+P19838+Q04206); assay: Inhibition of TNF-alpha induced NFkappaB activation in human HCT-116 cells assessed as downregulation of MCP-1 gene expression pretreated for 24 hrs followed by TNFalpha stimulation and measured after 2 hrs by quantitative RT-PCR analysis; format: cell-based; settings: dose 1-10 µM, time 26.0 hrs
[24] = biological target: T1, Nuclear factor NF-kappa-B complex (Homo sapiens); assay: Inhibition of TNF-alpha induced NFkappaB activation in human HT-29 cells assessed as inhibition of p65 nuclear translocation at 10 uM pretreated for 6 hrs followed by TNFalpha stimulation for 15 mins by immunohistochemical analysis; format: cell-based; settings: time 6.25 hrs
HCT-116 [25] = assay: Antitumor activity against human HCT-116 cells xenografted in athymic nude BALB/c mouse assessed as induction of apoptosis by measuring increase in cleaved caspase 3 expression in tumor at 15 mg/kg, ip administered every other day and measured after 14 days by immunohistochemistry analysis; format: functional, organism-based; settings: time 14.0 day
HCT-116 [26] = assay: Induction of autophagic flux in human HCT-116 cells assessed as increase in LC3 protein expression preincubated with 3-methyladenine for 1 hr followed by compound addition and measured after 24 hrs by Western blot analysis; format: functional, cell-based
HT-29 [27] = assay: Cytotoxicity against human HT-29 cells assessed as inhibition of cell growth by SRB assay; format: functional, cell-based; settings: time 24-48 hrs, TDE = time-dependent effect
HCT-116 [28] = assay: Cytotoxicity against human HCT-116 cells assessed as inhibition of cell growth by SRB assay; format: functional, cell-based; settings: time 24-48 hrs, TDE = time-dependent effect
HT-29 [29] = assay: Induction of autophagic flux in human HT-29 cells assessed as increase in LC3 protein expression preincubated with 3-methyladenine for 1 hr followed by compound addition and measured after 24 hrs by Western blot analysis; format: functional, cell-based
HT-29 [30] = assay: Induction of autophagic cell death in human HT-29 cells at 1 to 10 uM pretreated with 3-methyladenine for 1 hr followed by compound addition and measured after 24 hrs by SRB assay; format: functional, cell-based; settings: dose 1-10 µM
Mus musculus = assay: Anti-inflammatory activity in AOM/DSS-induced BALB/c mouse model inflammatory bowel disease assessed as reduction in body weight at 5 to 10 mg/kg, ip pretreated with AOM for 7 days further replaced with DSS for 7 days and repeated for 2 times followed by every 2 days compound treatment for […] starting from day 50 […]; format: functional, organism-based; settings: dose 5-10 mg/kg, time 21.0 day

T1 sequence (P19838 whole entry, looked up): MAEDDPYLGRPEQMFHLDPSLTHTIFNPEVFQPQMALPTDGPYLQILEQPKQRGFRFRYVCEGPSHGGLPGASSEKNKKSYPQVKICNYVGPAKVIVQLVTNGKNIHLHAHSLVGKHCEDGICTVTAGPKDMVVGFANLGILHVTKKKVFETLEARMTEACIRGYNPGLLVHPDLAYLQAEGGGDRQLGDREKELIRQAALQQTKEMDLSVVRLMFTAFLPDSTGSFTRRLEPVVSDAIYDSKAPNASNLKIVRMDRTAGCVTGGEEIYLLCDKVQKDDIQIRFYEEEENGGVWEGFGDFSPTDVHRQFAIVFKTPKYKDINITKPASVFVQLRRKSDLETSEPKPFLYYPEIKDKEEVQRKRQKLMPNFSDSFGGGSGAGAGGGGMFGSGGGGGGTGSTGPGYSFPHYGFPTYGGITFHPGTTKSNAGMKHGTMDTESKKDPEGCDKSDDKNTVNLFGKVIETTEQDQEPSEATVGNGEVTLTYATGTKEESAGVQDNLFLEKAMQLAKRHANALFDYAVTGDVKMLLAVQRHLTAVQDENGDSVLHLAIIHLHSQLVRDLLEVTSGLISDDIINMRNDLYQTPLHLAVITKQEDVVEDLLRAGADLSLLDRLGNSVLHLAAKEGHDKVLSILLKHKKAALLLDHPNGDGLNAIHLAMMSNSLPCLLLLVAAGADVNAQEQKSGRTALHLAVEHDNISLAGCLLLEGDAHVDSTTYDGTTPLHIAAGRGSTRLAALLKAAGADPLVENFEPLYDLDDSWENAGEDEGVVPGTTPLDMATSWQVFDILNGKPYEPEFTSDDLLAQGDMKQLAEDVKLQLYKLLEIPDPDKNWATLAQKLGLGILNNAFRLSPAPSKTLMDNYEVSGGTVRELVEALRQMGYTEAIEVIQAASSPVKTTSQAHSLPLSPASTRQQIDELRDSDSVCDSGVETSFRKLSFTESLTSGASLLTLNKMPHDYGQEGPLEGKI
T1 sequence (Q00653 whole entry, looked up): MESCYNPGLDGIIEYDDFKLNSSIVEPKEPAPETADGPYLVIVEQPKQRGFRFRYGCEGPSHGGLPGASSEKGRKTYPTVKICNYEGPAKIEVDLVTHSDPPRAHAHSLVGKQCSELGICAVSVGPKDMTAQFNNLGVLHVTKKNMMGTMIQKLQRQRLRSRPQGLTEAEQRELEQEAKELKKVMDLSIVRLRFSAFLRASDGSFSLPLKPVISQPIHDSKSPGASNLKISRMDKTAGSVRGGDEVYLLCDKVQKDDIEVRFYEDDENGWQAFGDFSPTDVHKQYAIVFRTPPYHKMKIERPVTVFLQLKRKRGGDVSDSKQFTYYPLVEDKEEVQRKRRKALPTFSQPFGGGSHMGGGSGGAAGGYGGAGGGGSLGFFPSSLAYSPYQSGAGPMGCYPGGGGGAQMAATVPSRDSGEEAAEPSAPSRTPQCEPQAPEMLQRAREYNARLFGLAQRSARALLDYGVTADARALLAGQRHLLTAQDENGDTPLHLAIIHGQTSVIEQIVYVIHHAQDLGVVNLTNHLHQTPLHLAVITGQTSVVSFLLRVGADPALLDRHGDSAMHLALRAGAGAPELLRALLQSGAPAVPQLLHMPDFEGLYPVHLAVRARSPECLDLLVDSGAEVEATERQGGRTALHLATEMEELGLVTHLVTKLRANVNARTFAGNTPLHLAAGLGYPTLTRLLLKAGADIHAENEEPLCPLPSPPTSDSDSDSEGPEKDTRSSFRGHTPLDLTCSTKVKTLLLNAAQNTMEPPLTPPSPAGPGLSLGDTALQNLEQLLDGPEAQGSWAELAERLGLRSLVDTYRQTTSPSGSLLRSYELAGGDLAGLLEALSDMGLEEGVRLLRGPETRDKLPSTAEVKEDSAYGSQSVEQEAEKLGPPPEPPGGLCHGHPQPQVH
T1 sequence (Q04206 whole entry, looked up): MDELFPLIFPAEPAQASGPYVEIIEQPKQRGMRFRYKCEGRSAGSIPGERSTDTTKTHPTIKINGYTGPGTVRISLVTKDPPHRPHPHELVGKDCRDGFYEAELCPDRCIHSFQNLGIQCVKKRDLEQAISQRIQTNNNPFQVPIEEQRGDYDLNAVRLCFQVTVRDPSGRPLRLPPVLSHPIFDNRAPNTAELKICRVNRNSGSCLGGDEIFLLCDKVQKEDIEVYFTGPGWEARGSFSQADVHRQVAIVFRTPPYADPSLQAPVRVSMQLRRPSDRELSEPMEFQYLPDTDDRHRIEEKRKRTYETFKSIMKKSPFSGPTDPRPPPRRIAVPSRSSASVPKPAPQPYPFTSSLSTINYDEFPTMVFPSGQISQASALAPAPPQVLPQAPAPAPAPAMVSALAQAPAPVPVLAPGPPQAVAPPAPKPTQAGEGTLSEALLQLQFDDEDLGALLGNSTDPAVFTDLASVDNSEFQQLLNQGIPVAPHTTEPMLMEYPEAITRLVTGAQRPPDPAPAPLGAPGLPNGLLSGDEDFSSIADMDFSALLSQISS

## C[C@@H]1CC[C@H]2[C@H](C(=O)c3c(O)c([C@@]4(O)CC[C@@H](O)[C@H]5O[C@H]54)cn(O)c3=O)[C@H](C)C=C[C@@H]2C1
[1]
  Activity: Non-Toxic
HCT-116 [2]
  Activity: Active
HT-29 [3]
  Activity: 0.1%
HCT-116 [4]
  viability at 5 µM: 15.6%
HT-29 [5]
  inhibition: Active
HT-29 [6]
  Activity: 72.58%
HT-29 [7]
  Activity: 69.17%
HCT-116 [8]
  Activity: Active
HT-29 [9]
  Activity: Active
HT-29 [10]
  Activity: Active
HCT-116 [11]
  viability at 10 µM: 11.1%
HCT-116 [12]
  viability at 0.5 µM: 51.7%
HCT-116 [13]
  Activity: 2.41%
HT-29 [14]
  viability at 10 µM: 36.8%
HT-29 [15]
  Activity: 56.4%
HT-29 [16]
  Activity: 6.72%
HT-29 [17]
  Activity: 0.16%
HT-29 [18]
  Activity: 0.22%
HT-29 [19]
  Activity: Dose-Dependent Effect
HCT-116 [20]
  Activity: 0.39%
HCT-116 [21]
  Activity: Active
HT-29 [22]
  Activity: Active
[23]
  inhibition: Dose-Dependent Effect
[24]
  inhibition: Active
HCT-116 [25]
  Activity: Active
HCT-116 [26]
  Activity: Active
HT-29 [27]
  Activity: Tde
HCT-116 [28]
  Activity: Tde
HT-29 [29]
  Activity: Active
HT-29 [30]
  Activity: inactive
Mus musculus
  Activity: Active
